# Test results published in US9938273B2 (Plexxikon Inc., priority 2015, dated 2018).
# pIC50: −log10 of the molar value.
# Biological target: T1, FLT3-ITD (Homo sapiens, UniProt P36888)
# T1 sequence (P36888 1-993): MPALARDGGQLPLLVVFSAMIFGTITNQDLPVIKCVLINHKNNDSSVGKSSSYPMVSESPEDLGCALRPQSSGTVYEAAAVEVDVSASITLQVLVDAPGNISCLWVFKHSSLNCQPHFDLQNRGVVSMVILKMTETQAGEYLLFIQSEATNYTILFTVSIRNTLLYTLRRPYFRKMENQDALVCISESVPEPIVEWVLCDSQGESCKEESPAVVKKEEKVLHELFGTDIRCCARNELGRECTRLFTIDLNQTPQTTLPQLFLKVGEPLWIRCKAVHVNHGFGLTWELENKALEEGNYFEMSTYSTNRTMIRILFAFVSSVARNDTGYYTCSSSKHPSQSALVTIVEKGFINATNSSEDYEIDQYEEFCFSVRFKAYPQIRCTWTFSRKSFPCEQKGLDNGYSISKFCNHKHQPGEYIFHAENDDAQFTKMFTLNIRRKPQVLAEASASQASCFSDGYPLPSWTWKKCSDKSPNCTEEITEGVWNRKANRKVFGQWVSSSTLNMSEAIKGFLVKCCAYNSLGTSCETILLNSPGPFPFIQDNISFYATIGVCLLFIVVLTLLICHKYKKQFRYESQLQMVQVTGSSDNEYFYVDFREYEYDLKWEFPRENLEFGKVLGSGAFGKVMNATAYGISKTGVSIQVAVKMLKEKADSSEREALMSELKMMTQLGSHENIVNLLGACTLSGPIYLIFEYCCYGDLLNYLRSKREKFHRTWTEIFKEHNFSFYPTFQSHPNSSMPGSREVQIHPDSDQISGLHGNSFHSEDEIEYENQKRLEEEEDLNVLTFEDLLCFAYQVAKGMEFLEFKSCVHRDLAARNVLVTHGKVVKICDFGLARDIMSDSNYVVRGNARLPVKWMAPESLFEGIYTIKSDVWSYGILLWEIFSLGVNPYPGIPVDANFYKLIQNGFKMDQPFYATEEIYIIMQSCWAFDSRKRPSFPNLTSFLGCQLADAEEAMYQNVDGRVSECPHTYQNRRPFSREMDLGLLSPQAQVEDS
# Assay: AlphaScreen kinase assay with recombinant enzyme, FLT3-ITD
# Type: biochemical
# Details: 8pt; read-out: FLT3_ITD 8pt: IC50
# Procedure, shortened: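 Recombinant kinase phosphorylates biotinylated poly(Glu4-Tyr) peptide (30 nM final); streptavidin donor and anti-phosphotyrosine PY20 acceptor beads (10 μg/mL final) give a 580 nm proximity signal on 680 nm excitation. IC50 determinations used a final concentration of 10 μM for FLT3-D835Y/FLT3-ITD and 100 μM for c-KIT.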
row,pIC50,Structure (SMILES)
1,5.00 to 10.00,"CNC(=O)C1CCN(C(=O)c2cccc(-c3cnc4[nH]c(-c5ccccc5)cc4c3)n2)CC1 [Compound P-0030, N-methyl-1-[6-(2-phenyl-1H-pyrrolo[2,3-b]pyridin-5-yl)pyridine-2-carbonyl]piperidine-4-carboxamide]"
2,5.00 to 10.00,"CS(=O)(=O)NC1CCN(C(=O)c2cccc(-c3cnc4[nH]c(-c5ccccc5)cc4c3)n2)CC1 [Compound P-0032, N-[1-[6-(2-phenyl-1H-pyrrolo[2,3-b]pyridin-5-yl)pyridine-2-carbonyl]-4-piperidyl]methanesulfonamide]"
3,5.00 to 10.00,"Cc1ccc(-c2cnc3[nH]c(-c4ccccc4)cc3c2)nc1C(=O)N1CCC(N)CC1 [Compound P-0033, (4-amino-1-piperidyl)-[3-methyl-6-(2-phenyl-1H-pyrrolo[2,3-b]pyridin-5-yl)-2-pyridyl]methanone]"
4,5.00 to 10.00,"Cc1ccc(-c2cnc3[nH]c(-c4ccccc4)cc3c2)cc1C(=O)N1CCC(N)CC1 [Compound P-0035, (4-amino-1-piperidyl)-[2-methyl-5-(2-phenyl-1H-pyrrolo[2,3-b]pyridin-5-yl)phenyl]methanone]"
5,5.00 to 10.00,"NC1CCN(C(=O)c2c[nH]c3ccc(-c4cnc5[nH]c(-c6ccccc6)cc5c4)cc23)CC1 [Compound P-0042, (4-amino-1-piperidyl)-[5-(2-phenyl-1H-pyrrolo[2,3-b]pyridin-5-yl)-1H-indol-3-yl]methanone]"
6,5.00 to 10.00,"N[C@H]1CCN(C(=O)c2csc(-c3cnc4[nH]c(-c5ccccc5)cc4c3)n2)C1 [Compound P-0048, [(3S)-3-aminopyrrolidin-1-yl]-[2-(2-phenyl-1H-pyrrolo[2,3-b]pyridin-5-yl)thiazol-4-yl]methanone]"
7,5.00 to 10.00,"N=C(N)N1CCN(C(=O)c2cccc(-c3cnc4[nH]c(-c5ccccc5)cc4c3)n2)CC1 [Compound P-0057, 4-[6-(2-phenyl-1H-pyrrolo[2,3-b]pyridin-5-yl)pyridine-2-carbonyl]piperazine-1-carboxamidine]"
8,5.00 to 10.00,"O=C(c1cccc(-c2cnc3[nH]c(-c4ccccc4)cc3c2)n1)N1CCC(O)C1 (stereo not drawn) [Compound P-0068, (3-hydroxypyrrolidin-1-yl)-[6-(2-phenyl-1H-pyrrolo[2,3-b]pyridin-5-yl)-2-pyridyl]methanone]"
9,5.00 to 10.00,"O=C(c1cccc(-c2cnc3[nH]c(-c4ccccc4)cc3c2)n1)N1CCCC(O)C1 (stereo not drawn) [Compound P-0069, (3-hydroxy-1-piperidyl)-[6-(2-phenyl-1H-pyrrolo[2,3-b]pyridin-5-yl)-2-pyridyl]methanone]"

# The next lines start with the compound.
row,Structure (SMILES),pIC50
1,"CC(=O)NC1CCN(C(=O)c2cccc(-c3cnc4[nH]c(-c5ccc(F)cc5)cc4c3)c2)CC1 [Compound P-0001, N-[1-[3-[2-(4-fluorophenyl)-1H-pyrrolo[2,3-b]pyridin-5-yl]benzoyl]-4-piperidyl]acetamide]",4.30 to 5.00
2,"CON(C)C(=O)c1cccc(-c2cnc3[nH]c(-c4ccccc4)cc3c2)c1 [Compound P-0002, N-methoxy-N-methyl-3-(2-phenyl-1H-pyrrolo[2,3-b]pyridin-5-yl)benzamide]",5.00 to 10.00
3,"NC1CN(C(=O)c2n[nH]c3ccc(-c4cnc5[nH]c(-c6ccccc6)cc5c4)cc23)C1 [Compound P-0029, (3-aminoazetidin-1-yl)-[5-(2-phenyl-1H-pyrrolo[2,3-b]pyridin-5-yl)-1H-indazol-3-yl]methanone]",5.00 to 10.00
4,"CCNC(=O)NC1CCN(C(=O)c2cccc(-c3cnc4[nH]c(-c5ccccc5)cc4c3)n2)CC1 [Compound P-0031, 1-ethyl-3-[1-[6-(2-phenyl-1H-pyrrolo[2,3-b]pyridin-5-yl)pyridine-2-carbonyl]-4-piperidyl]urea]",5.00 to 10.00
5,"NC1CCN(c2cccc3ccc(-c4cnc5[nH]c(-c6ccccc6)cc5c4)nc23)CC1 [Compound P-0034, 1-[2-(2-phenyl-1H-pyrrolo[2,3-b]pyridin-5-yl)-8-quinolyl]piperidin-4-amine]",5.00 to 10.00
6,"N[C@H]1CCN(C(=O)c2cccc(-c3cnc4[nH]c(-c5ccccc5)cc4c3)c2)C1 [Compound P-0036, [(3S)-3-aminopyrrolidin-1-yl]-[3-(2-phenyl-1H-pyrrolo[2,3-b]pyridin-5-yl)phenyl]methanone]",5.00 to 10.00
7,"NC1CCN(C(=O)c2cc(-c3cnc4[nH]c(-c5ccccc5)cc4c3)ccn2)CC1 [Compound P-0038, (4-amino-1-piperidyl)-[4-(2-phenyl-1H-pyrrolo[2,3-b]pyridin-5-yl)-2-pyridyl]methanone]",5.00 to 10.00
8,"O=C(NC1CCNCC1)c1n[nH]c2ccc(-c3cnc4[nH]c(-c5ccccc5)cc4c3)cc12 [Compound P-0039, 5-(2-phenyl-1H-pyrrolo[2,3-b]pyridin-5-yl)-N-(4-piperidyl)-1H-indazole-3-carboxamide]",5.00 to 10.00
9,"CNC1CCN(C(=O)c2cccc(-c3cnc4[nH]c(-c5ccccc5)cc4c3)n2)CC1 [Compound P-0041, [4-(methylamino)-1-piperidyl]-[6-(2-phenyl-1H-pyrrolo[2,3-b]pyridin-5-yl)-2-pyridyl]methanone]",5.00 to 10.00
10,"O=C(c1cccc(-c2cnc3[nH]c(-c4ccccc4)cc3c2)n1)C1CCNCC1 [Compound P-0043, [6-(2-phenyl-1H-pyrrolo[2,3-b]pyridin-5-yl)-2-pyridyl]-(4-piperidyl)methanone]",5.00 to 10.00
11,"CNC1CCN(C(=O)c2n[nH]c3ccc(-c4cnc5[nH]c(-c6ccccc6)cc5c4)cc23)CC1 [Compound P-0044, [4-(methylamino)-1-piperidyl]-[5-(2-phenyl-1H-pyrrolo[2,3-b]pyridin-5-yl)-1H-indazol-3-yl]methanone]",5.00 to 10.00
12,"O=C(NC1CCNC1)c1cccc(-c2cnc3[nH]c(-c4ccccc4)cc3c2)n1 (stereo not drawn) [Compound P-0045, 6-(2-phenyl-1H-pyrrolo[2,3-b]pyridin-5-yl)-N-pyrrolidin-3-yl-pyridine-2-carboxamide]",5.00 to 10.00
13,"N[C@H]1CCN(C(=O)c2cc(-c3cnc4[nH]c(-c5ccccc5)cc4c3)ccn2)C1 [Compound P-0046, [(3S)-3-aminopyrrolidin-1-yl]-[4-(2-phenyl-1H-pyrrolo[2,3-b]pyridin-5-yl)-2-pyridyl]methanone]",5.00 to 10.00
14,"NC1CCC(C(=O)N2Cc3c(cccc3-c3cnc4[nH]c(-c5ccccc5)cc4c3)C2=O)C1 (stereo not drawn) [Compound P-0047, 2-(3-aminocyclopentanecarbonyl)-4-(2-phenyl-1H-pyrrolo[2,3-b]pyridin-5-yl)isoindolin-1-one]",5.00 to 10.00
15,"c1ccc(-c2cc3cc(-c4ccc5[nH]nc(NC6CNC6)c5c4)cnc3[nH]2)cc1 [Compound P-0053, N-(azetidin-3-yl)-5-(2-phenyl-1H-pyrrolo[2,3-b]pyridin-5-yl)-1H-indazol-3-amine]",5.00 to 10.00
16,"c1ccc(-c2cc3cc(-c4ccc5[nH]nc(NC6CCNCC6)c5c4)cnc3[nH]2)cc1 [Compound P-0056, 5-(2-phenyl-1H-pyrrolo[2,3-b]pyridin-5-yl)-N-(4-piperidyl)-1H-indazol-3-amine]",5.00 to 10.00
17,"c1ccc(-c2cc3cc(-c4ccc5[nH]nc(NC6CCNC6)c5c4)cnc3[nH]2)cc1 (stereo not drawn) [Compound P-0059, 5-(2-phenyl-1H-pyrrolo[2,3-b]pyridin-5-yl)-N-pyrrolidin-3-yl-1H-indazol-3-amine]",5.00 to 10.00
18,"NC1CCCN(C(=O)c2cccc(-c3cnc4[nH]c(-c5ccccc5)cc4c3)n2)C1 (stereo not drawn) [Compound P-0067, (3-amino-1-piperidyl)-[6-(2-phenyl-1H-pyrrolo[2,3-b]pyridin-5-yl)-2-pyridyl]methanone]",5.00 to 10.00
